Like-named read-outs stand apart in the source and are kept apart here.
System: HIV-1 (H9IIIB strain)
Experiment: Cell-based HIV infection assay using a reporter (Cell-Based), MT4-GFP cells
Conditions: 50% normal human serum, mean of at least two independent experiments, read-out: Cell-based IP
Outline: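 IC50 from 4-parameter dose-response of % viral growth inhibition, using the 48 h/24 h infected-cell ratio scaled between DMSO and a protease/integrase/NNRTI triple-drug control. Assay used MT4 cells with HIV-LTR-GFP reporter, pre-infected 24 h with HIV-1 H9IIIB, in 50% normal human serum.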

[1] = Human immunodeficiency virus 1, MT4-GFP cells infected with HIV-1 H9IIIB

O=C(C[C@@H](c1ccc(F)cc1)c1cc(F)cc(F)c1)Nc1cncc(F)c1CC[C@H]1CNCCN1S(=O)(=O)N1CC[C@@H](F)C1 [Example 328, (3S)-3-(3,5-difluorophenyl)-N-(5-fluoro-4-{2-[(2S)-1-{[(3S)-3-fluoropyrrolidin-1-yl]sulfonyl}piperazin-2-yl]ethyl}pyridin-3-yl)-3-(4-fluorophenyl)propanmide]
IC50 (MT4-GFP cells infected with HIV-1 H9IIIB): 16 nM

COC(=O)N[C@H](C(=O)Nc1cncc(F)c1CC[C@H]1CNC[C@H](C)N1S(=O)(=O)C1CC1)[C@@H](c1ccc(F)cc1)c1cc(F)cc(F)c1 [Example 210, (βS)-N-(4-{2-[(2S,6S)-1-(cyclopropylsulfonyl)-6-methylpiperazin-2-yl]ethyl}-5-fluoropyridin-3-yl)-β-(3,5-difluorophenyl)-4-fluoro-Nα-(methoxycarbonyl)-L-phenylalaninamide]
IC50 [1]: 13 nM

C[C@H]1CNC[C@H](CCc2c(F)cccc2NC(=O)[C@@H](N)[C@@H](c2ccc(F)c(F)c2)C2CCOCC2)N1S(=O)(=O)c1ccccc1 [Example 289, (βR)-3,4-difluoro-N-(3-fluoro-2-{2-[(2S,6S)-6-methyl-1-(phenylsulfonyl)piperazin-2-yl]ethyl}phenyl)-β-(tetrahydro-2H-pyran-4-yl)-L-phenylalaninamide]
IC50 [1]: 23 nM

C[C@@H]1CNC[C@H](CCc2c(F)cccc2NC(=O)[C@@H](N)[C@@H](c2ccc(Cl)cc2)C2CCOCC2)N1S(C)(=O)=O [Example 160, (βR)-4-chloro-N-(3-fluoro-2-{2-[(2S,6R)-6-methyl-1-(methylsulfonyl)piperazin-2-yl]ethyl}phenyl)-β-(tetrahydro-2H-pyran-4-yl)-L-phenylalaninamide]
IC50 [1]: 190 nM

COc1ccc([C@H](c2ccc(Cl)cc2)[C@H](N)C(=O)Nc2cccc(F)c2CC[C@H]2CNCC(C)N2S(=O)(=O)C2CC2)cn1 (stereo in doubt) [Example 152, (βS)-4-chloro-N-(2-{2-[(2S,6S)-1-(cyclopropylsulfonyl)-6-methylpiperazin-2-yl]ethyl}-3-fluorophenyl)-β-(6-methoxypyridin-3-yl)-L-phenylalaninamide]
IC50 [1]: 39 nM

COC(=O)N[C@H](C(=O)Nc1cccc(F)c1CC[C@H]1CNC[C@@H](C)N1S(=O)(=O)c1ccccc1)[C@@H](c1ccc(Cl)cc1)c1cccc(F)c1 [Example 184, (βS)-4-chloro-N-(3-fluoro-2-{2-[(2S,6R)-6-methyl-1-(phenylsulfonyl)piperazin-2-yl]ethyl}phenyl)-β-(3-fluorophenyl)-Nα-(methoxycarbonyl)-L-phenylalaninamide]
IC50 [1]: 25 nM

O=C(C[C@@H](c1ccc(F)cc1)c1cc(F)cc(F)c1)Nc1cncc(F)c1CC[C@H]1CNCCN1S(=O)(=O)N1CCCC(F)(F)C1 [Example 332, (3S)-3-(3,5-difluorophenyl)-N-[4-(2-{(2S)-1-[(3,3-difluoropiperidin-1-yl)sulfonyl]piperazin-2-yl}ethyl)-5-fluoropyridin-3-yl]-3-(4-fluorophenyl)propanamide]
IC50 [1]: 410 nM

COC(=O)N[C@H](C(=O)Nc1cccc(F)c1CC[C@H]1CNC[C@H](C)N1S(C)(=O)=O)[C@@H](c1ccc(Cl)cc1)c1ccc(OC)nc1 [Example 165, (βS)-4-chloro-N-(3-fluoro-2-{2-[(2S,6S)-6-methyl-1-(methylsulfonyl)piperazin-2-yl]ethyl}phenyl)-Nα-(methoxycarbonyl)-β-(6-methoxypyridin-3-yl)-L-phenylalaninamide]
IC50 [1]: 17 nM

COC(=O)N[C@H](C(=O)Nc1cccc(F)c1CC[C@H]1CNC[C@H](C)N1S(=O)(=O)c1ccccc1)[C@@H](c1ccc(F)c(F)c1)C1CCOCC1 [Example 295, (βR)-3,4-difluoro-N-(3-fluoro-2-{2-[(2S,6S)-6-methyl-1-(phenylsulfonyl)piperazin-2-yl]ethyl}phenyl)-Nα-(methoxycarbonyl)-β-(tetrahydro-2H-pyran-4-yl)-L-phenylalaninamide]
IC50 [1]: 4.2 nM

C[C@@H]1CNC[C@H](CCc2c(F)cccc2NC(=O)[C@@H](N)[C@@H](c2ccc(F)cc2)C2CCOCC2)N1S(=O)(=O)c1ccccc1 [Example 104, (βR)-4-fluoro-N-(3-fluoro-2-{2-[(2S,6R)-6-methyl-1-(phenylsulfonyl)piperazin-2-yl]ethyl}phenyl)-β-(tetrahydro-2H-pyran-4-yl)-L-phenylalaninamide]
IC50 [1]: 37 nM

CCOC(=O)N[C@H](C(=O)Nc1cccc(F)c1CC[C@H]1CNC[C@@H](C)N1S(=O)(=O)c1ccccc1)[C@@H](c1ccc(Cl)cc1)C1CCOCC1 [Example 148, (βR)-4-chloro-Nα-(ethoxycarbonyl)-N-(3-fluoro-2-{2-[(2S,6R)-6-methyl-1-(phenylsulfonyl)piperazin-2-yl]ethyl}phenyl)-β-(tetrahydro-2H-pyran-4-yl)-L-phenylalaninamide]
IC50 [1]: 8.8 nM

COC(=O)N[C@H](C(=O)Nc1cncc(F)c1CC[C@H]1CNCCN1S(=O)(=O)c1ccccc1)[C@@H](c1ccc(Cl)cc1)c1cc(F)cc(F)c1 [Example 57, (βS)-4-chloro-β-(3,5-difluorophenyl)-N-(5-fluoro-4-{2-[(2S)-1-(phenylsulfonyl)piperazin-2-yl]ethyl}pyridin-3-yl)-Nα-(methoxycarbonyl)-L-phenylalaninamide]
IC50 [1]: 7.7 nM

O=C(C[C@@H](c1ccc(F)cc1)c1cc(F)cc(F)c1)Nc1cncc(F)c1CC[C@H]1CNCCN1C(=O)c1cccc(OC(F)(F)F)c1 [Example 346, (3S)-3-(3,5-difluorophenyl)-3-(4-fluorophenyl)-N-(5-fluoro-4-{2-[(2S)-1-{[3-(trifluoromethoxy)phenyl]carbonyl}piperazin-2-yl]ethyl}pyridin-3-yl)propanamide]
IC50 [1]: 860 nM

COCC1CNC[C@H](CCc2c(F)cccc2NC(=O)[C@@H](N)[C@@H](c2ccc(F)cc2)c2cc(F)cc(F)c2)N1S(=O)(=O)C1CC1 (stereo partly drawn) [Example 241, (βS)-N-(2-{2-[(2S)-1-(cyclopropylsulfonyl)-6-(methoxymethyl)piperazin-2-yl]ethyl}-3-fluorophenyl)-β-(3,5-difluorophenyl)-4-fluoro-L-phenylalaninamide]
IC50 [1]: 39 nM

N[C@H](C(=O)Nc1cccc(F)c1CC[C@H]1CNCC2(CC2)N1S(=O)(=O)c1ccccc1)C(c1ccc(F)cc1)c1ccc(F)cc1 [Example 366, (S)-2-amino-N-(3-fluoro-2-(2-((S)-4-(phenylsulfonyl)-4,7-diazaspiro[2.5]octan-5-yl)ethyl)phenyl)-3,3-bis(4-fluorophenyl)propanamide]
IC50 [1]: 13 nM

CC(C)[C@H](c1ccc(Cl)cc1)[C@H](N)C(=O)Nc1cncc(F)c1CC[C@H]1CNC[C@H](C)N1S(=O)(=O)C1CC1 [Example 177, (βR)-4-chloro-N-(4-{2-[(2S,6S)-1-(cyclopropylsulfonyl)-6-methylpiperazin-2-yl]ethyl}-5-fluoropyridin-3-yl)-β-(1-methylethyl)-L-phenylalaninamide]
IC50 [1]: 95 nM

COC(=O)N[C@H](C(=O)Nc1cccc(F)c1CC[C@H]1CNC[C@H](C)N1S(=O)(=O)c1ccc(OC(F)(F)F)cc1)[C@@H](c1ccc(F)cc1)c1cc(F)cc(F)c1 [Example 234, (βS)-β-(3,5-difluorophenyl)-4-fluoro-N-(3-fluoro-2-{2-[(2S,6S)-6-methyl-1-{[4-(trifluoromethoxy)phenyl]sulfonyl}piperazin-2-yl]ethyl}phenyl)-Nα-(methoxycarbonyl)-L-phenylalaninamide]
IC50 [1]: 49 nM

COC(=O)N[C@H](C(=O)Nc1cccc(F)c1CC[C@H]1CNC[C@H](C)N1S(=O)(=O)C1CC1)[C@@H](c1ccc(Cl)cc1)C(C)C [Example 144, (βR)-4-chloro-N-(2-{2-[(2S,6S)-1-(cyclopropylsulfonyl)-6-methylpiperazin-2-yl]ethyl}-3-fluorophenyl)-Nα-(methoxycarbonyl)-β-(1-methylethyl)-L-phenylalaninamide]
IC50 [1]: 93 nM

N[C@H](C(=O)Nc1cncc(F)c1CC[C@H]1CNCCN1S(=O)(=O)CC1CC1)[C@@H](c1ccc(F)cc1)c1cc(F)cc(F)c1 [Example 28, (βS)-N-[4-(2-{(2S)-1-[(cyclopropylmethyl)sulfonyl]piperazin-2-yl}ethyl)-5-fluoropyridin-3-yl]-3,5-difluoro-β-(4-fluorophenyl)-L-phenylalaninamide]
IC50 [1]: 21 nM

O=Cc1ccc(S(=O)(=O)N2CCNC[C@@H]2CCc2c(F)cncc2NC(=O)C[C@@H](c2ccc(F)cc2)c2cc(F)cc(F)c2)cc1 [Example 319, (3S)-3-(3,5-difluorophenyl)-N-[5-fluoro-4-(2-{(2S)-1-[(4-formylphenyl)sulfonyl]piperazin-2-yl}ethyl)pyridin-3-yl]-3-(4-fluorophenyl)propanamide]
IC50 [1]: 59 nM

COC(=O)N[C@H](C(=O)Nc1cccc(F)c1CC[C@H]1CNCCN1S(=O)(=O)c1ccccc1)[C@@H](c1ccc(Cl)cc1)c1cccc(OC(F)(F)F)c1 [Example 58, (βS)-4-chloro-N-(3-fluoro-2-{2-[(2S)-1-(phenylsulfonyl)piperazin-2-yl]ethyl}phenyl)-Nα-(methoxycarbonyl)-β-[3-(trifluoromethoxy)phenyl]-L-phenylalaninamide]
IC50 [1]: 42 nM

C[C@H]1CN(S(=O)(=O)c2ccccc2)[C@@H](CCc2c(F)cccc2NC(=O)CC(c2ccc(F)cc2)c2ccc(F)cc2)CN1 [Example 89, N-(3-fluoro-2-{2-[(2S,5S)-5-methyl-1-(phenylsulfonyl)piperazin-2-yl]ethyl}phenyl)-3,3-bis(4-fluorophenyl) propanamide]
IC50 [1]: 700 nM

COC(=O)N[C@H](C(=O)Nc1cncc(F)c1CC[C@H]1CNCCN1S(=O)(=O)c1ccccc1)C1(c2ccc(Cl)cc2)CCOCC1 [Example 71, methyl {(1S)-1-[4-(4-chlorophenyl)tetrahydro-2H-pyran-4-yl]-2-[(5-fluoro-4-{2-[(2S)-1-(phenylsulfonyl)piperazin-2-yl]ethyl}pyridin-3-yl)amino]-2-oxoethyl} carbamate]
IC50 [1]: 11 nM

Source: US9840478B2 (MERCK SHARP & DOHME CORP., priority 2013, dated 2017)
